Values joined by “and” are separate entries in the source; they are usually repeats but may differ in a detail not shown here. Equal values may be shown once.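 Grown in 96-well plates, cells were treated for 48 hours with each compound at five concentrations. Insufficient inhibition: endpoint recorded as highest concentration tested. GI50 = concentration required for 50% inhibition of growth. Definition used: TGI = concentration required for complete inhibition of growth.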
Experiments:
Experiment in all cases: inhibition of tumour cell growth, NCI panel, 48 h
[1] = tested on: DMS 273 small cell lung
[2] = tested on: RXF-631 renal
[3] = tested on: M19-MEL melanoma
[4] = tested on: DMS 114 small cell lung
[5] = tested on: PC-3 prostate
[6] = tested on: BT-549 breast
[7] = tested on: DLD-1 colon
[8] = tested on: XF 498 CNS
[9] = tested on: MDA-N

Compound	TGI [1] [µM]	TGI [3]	TGI [4]	GI50 [5] [µM]	TGI [5] [µM]	GI50 [6] [µM]	TGI [6] [µM]	TGI [7]	also measured
Cc1c(C(=O)CC(=O)C(=O)Nc2ccc(Cl)c(Cl)c2)[n+](=O)c2ccccc2n1[O-]	49.9	33.3 µM	34.3 µM	–	–	–	–	–	TGI [2]: 60.3 µM
CCCc1cc2cc(-n3nc(C)c4c3CC(C)(C)CC4=O)cc(NC3CCC(O)CC3)c2c(=O)[nH]1 (stereo not drawn)	–	–	–	0.423	> 100	0.959	> 100	–	–
ClC1CCC2OOC1O2 (stereo not drawn)	> 100	> 100 µM	> 100 µM	–	–	–	–	–	–
COc1ccc(N(CC(=O)NCCC[Te]c2ccccc2)C(=O)CCSC2=C(C)C(=O)c3ccccc3C2=O)cc1	–	–	–	0.656	2.91	0.508	3.43	–	–
O=c1c2ccccc2nc(-c2ccc(Br)cc2)n1NC1OC(CO)C(O)C(O)C1O (stereo not drawn)	> 100	> 100 µM	> 100 µM	–	–	–	–	–	TGI [2]: > 100 µM
Cc1cccc2c(N=Nc3ccc(S(N)(=O)=O)cc3)c(O)[nH]c12	–	–	–	> 25	> 25	> 25	> 25	–	–
CCC1=C(C)/C(=C/c2[nH]c(CBr)c(CC)c2C)N=C1CBr	> 100	33.7 µM	27.8 µM	–	–	–	–	29 µM	TGI [2]: > 100 µM
Cc1c2c(nn1C(=O)c1nn(-c3ccc(Cl)cc3)cc1O)-c1ccccc1CC2	–	–	–	0.0373	> 100	0.0306	> 100	–	–
COc1cc2ccc3c4c(OC)cc(OC)c(OC)c4c(=O)n(C)c3c2cc1OC	–	16.7 µM and > 40.9 µM	16.7 µM and 26.6 µM	–	–	–	–	4.14 µM and > 33.5 µM	GI50 [8]: 5.27 µM; TGI [8]: 7.16 µM and 61.2 µM; GI50 [1]: 22.2 µM; GI50 [2]: 0.495 µM; GI50 [3]: 3.7 µM; GI50 [4]: 1.87 µM; GI50 [7]: 1.8 µM
N#CC(=S)Nc1ccc(Cl)c(Cl)c1	–	–	–	–	44.8	–	> 55.1	–	TGI [9]: 88.3 µM
O=[N+]([O-])c1cc(CCl)ccc1CCl	–	–	–	–	3.08	–	11.1	–	TGI [9]: 4.23 µM
COC(=O)/C(C#N)=C1\CCC(O)N1C (stereo not drawn)	–	–	> 100 µM	–	–	–	–	> 100 µM	TGI [8]: > 100 µM
COC(=O)C(C(=O)C(=O)NC1=C(Cl)C(=O)c2ccccc2C1=O)c1csc(-n2nc(-c3ccccc3)cc2-c2ccccc2)n1 (stereo not drawn)	> 100	> 100 µM	> 100 µM	–	–	–	–	> 100 µM	TGI [8]: > 100 µM; TGI [2]: > 100 µM
COc1ccc(C(c2ccc(C(C)C)cc(=O)c2O)c2ccc3cccnc3c2O)cc1 (stereo not drawn)	2.08	2.54 µM	0.645 µM	–	–	–	–	15.3 µM	TGI [8]: 16.4 µM
CCc1ccccc1NC(=O)CCc1n[nH]c(=S)o1	> 100	> 100 µM	> 100 µM	–	–	–	–	> 100 µM	–
CC(=O)OCc1cc(OC(C)=O)cnc1COC(C)=O	> 100	> 100 µM	> 100 µM	–	–	–	–	> 100 µM	TGI [8]: > 100 µM; TGI [2]: > 100 µM
COC(=O)C1=CN=C(C(=O)OC)NN1	–	> 100 µM	> 100 µM	–	–	–	–	> 100 µM	TGI [8]: > 100 µM; TGI [2]: > 100 µM

Compound	TGI [1] [µM]	TGI [3]	TGI [4]	GI50 [5] [µM]	TGI [5] [µM]	GI50 [6] [µM]	TGI [6] [µM]	TGI [7]	also measured
Cc1ccc(S(=O)(=O)/N=c2\ssc(Nc3ccccc3)c2Cl)cc1	–	–	–	6.95	18.4	5.27	17	–	–
CC(=O)NC(CCCCNC(=O)N(CCCl)N=O)C(=O)NCc1ccccc1 (stereo not drawn)	> 100	> 100 µM	> 100 µM	–	–	–	–	> 100 µM	TGI [8]: > 100 µM; TGI [2]: > 100 µM
COc1ccc(-c2nn(-c3cccc(NC(=O)Nc4ccc(Cl)c(C(F)(F)F)c4)c3)cc2-c2ccncc2)cc1Cl	–	–	–	1.32	6.85	2.08	4.83	–	–
Cc1oc2c(C)c(O)c3c(c2c1C1(C)OCCO1)C(=O)C=C(Cl)C3=O	> 100	> 100 µM	–	–	–	–	–	–	TGI [8]: > 100 µM; TGI [2]: > 100 µM
N.N.N.N.N.N.[I-].[Os]	> 100	–	–	–	–	–	–	> 100 µM	GI50 [1]: > 100 µM; GI50 [7]: > 100 µM
Nc1ncnc2c1nc(-c1ccccc1)n2C1OC(CO)C(O)C1O (stereo not drawn)	–	–	–	–	> 100	–	> 100	–	TGI [9]: > 100 µM
CN1CCC[C@@H]1CCO[C@](C)(c1ccccc1)c1ccc(Cl)cc1	–	–	–	4.58	17	9.64	22.4	–	–
O=C(Nc1n[nH]c2nc(-c3ccco3)ccc12)C1CC1	–	–	–	> 25	> 25	> 25	> 25	–	–
c1cc(OCCN2CCCCCC2)ccc1CNc1ccc2nc(CCC3CCCCC3)[nH]c2c1	–	–	–	1.94	4.84	1.83	5.54	–	–
C[C@@H](CO)OCOCc1ccccc1	> 100	> 100 µM	> 100 µM	–	–	–	–	> 100 µM	TGI [8]: > 100 µM
CCN(CC)CCOc1ccc(/C(=C(\C)Cc2ccc(OC)cc2)c2ccc(OC(=O)NCc3ccccc3)cc2)cc1	–	–	–	1.94	3.88	1.7	3.36	–	–
COc1cc(/C=C2\[C@H]3c4c(c(OC)c(C)c(OC)c4OC)C[C@@H](C(=O)N2Cc2ccccc2)N3C(=O)OC(C)C)c(OC)c(C)c1OC	> 100	–	> 100 µM	–	–	–	–	> 100 µM	TGI [2]: > 100 µM
O=C1N=C(c2ccccc2)OC1C(=O)c1ccccc1 (stereo not drawn)	–	–	–	–	> 100	–	> 100	–	TGI [9]: > 100 µM
COc1cc2nc(Sc3c([N+](=O)[O-])ncn3C)[nH]c2cc1OC	–	> 100 µM	25.8 µM	–	–	–	–	46 µM	TGI [8]: 49.2 µM
COC(=O)C(C(=O)C(=O)Nc1ccccc1C(C)=O)c1nc2ccc(Cl)cc2[nH]c1=O (stereo not drawn)	–	> 100 µM	> 100 µM	–	–	–	–	> 100 µM	TGI [2]: > 100 µM
O=C(Nc1nccs1)c1cc2c(cc1Cl)Sc1nccn1S2(=O)=O	–	–	–	16.8	33.4	18.2	35.4	–	GI50 [9]: 17.9 µM; TGI [9]: 33.4 µM
O=C(O)c1ccc2c(c1Nc1ccccc1)C(=O)c1ccccc1C2=O	–	–	–	54.1	> 100	16.5	70	–	–
